Assays:
[1] = 101 kPa, Liquid; for speed of sound: Single path-length method; for mass density: Vibrating tube method
[2] = refractive index (Na D-line) (dimensionless); details: 101 kPa, Liquid, Standard Abbe refractometry
[3] = xn = mol fraction of the nth substance listed; details: 101 kPa, Liquid, x2 = 0; for speed of sound: Single path-length method; for mass density: Vibrating tube method
[4] = refractive index (Na D-line) (dimensionless); xn = mol fraction of the nth substance listed; details: 101 kPa, Liquid, Standard Abbe refractometry, x2 = 0

CCC(C)O (stereo not given) [butan-2-ol]
Details	mass density, [1] [kg/m3]	refractive index, [2]	speed of sound, [1] [m/s]
298.15 K	802.4	1.39474	1212
308.15 K	793.86	1.39011	1175.8
318.15 K	785.26	1.38547	1139.5
328.15 K	775.73	1.38022	1102.3
338.15 K	765.75	1.37621	1064.5

CC(C)O [propan-2-ol]
Details	mass density, [1] [kg/m3]	refractive index, [2]	speed of sound, [1] [m/s]
298.15 K	781.1	1.37522	1138.5
308.15 K	772.51	1.37083	1103.2
318.15 K	763.51	1.36622	1068.1
328.15 K	754.19	1.36146	1032.6
338.15 K	743.66	1.35637	997.33

CC(C)O [propan-2-ol] + CCCC(C)=O
Details	mass density, [3] [kg/m3]	refractive index, [4]	speed of sound, [3] [m/s]
298.15 K	781.1	1.37522	1138.5
308.15 K	772.51	1.37083	1103.2
318.15 K	763.51	1.36622	1068.1
328.15 K	754.19	1.36146	1032.6
338.15 K	743.66	1.35637	997.33

CCCC(C)=O [pentan-2-one]
Details	mass density, [1] [kg/m3]	refractive index, [2]	speed of sound, [1] [m/s]
298.15 K	802.09	1.38782	1216
308.15 K	792.32	1.38284	1174.4
318.15 K	782.44	1.37782	1133.3
328.15 K	772.43	1.3728	1093.6
338.15 K	762.27	1.36764	1053.8

CCC(C)O (stereo not given) [butan-2-ol] + CCCC(C)=O
Details	mass density, [3] [kg/m3]	refractive index, [4]	speed of sound, [3] [m/s]
298.15 K	802.4	1.39474	1212
308.15 K	793.86	1.39011	1175.8
318.15 K	785.26	1.38547	1139.5
328.15 K	775.73	1.38022	1102.3
338.15 K	765.75	1.37621	1064.5

Reference: the NIST ThermoML archive (doi:10.1021/acs.jced.8b00547)
